Source: ChEMBL document CHEMBL1148099, “New myrsinol-related polyfunctional pentacyclic diterpene esters from roots of Euphorbia prolifera” (J Nat Prod, 1995)

Test: Skin irritant activity in mouse ear assessed as irritant units per ear after 24 hrs
Assay type: ADME, tissue-based
Conditions: topical_or_ocular

For `CCC(=O)OC1C(C)CC2(OC(C)=O)C1[C@@H](OC(C)=O)[C@@]13CO[C@@](C)(C2OC(C)=O)C1C1C(C[C@]1(C)OC(C)=O)C(OC(=O)C(C)C)C3=O` (some centres not stated), the Activity was over 1000 µg.
`CCC(=O)OC1C(C)CC2(OC(C)=O)C1[C@@H](OC(C)=O)[C@@]13CO[C@@](C)(C2OC(C)=O)C1C1C(C[C@]1(C)OC(C)=O)C(OC(=O)c1ccccc1)C3=O` (some centres not stated) gave an Activity of over 1000 µg.
